Reference: patent US20250250284A1, “MACROCYCLE COMPOUNDS USEFUL AS KRAS INHIBITORS” (Hoffmann-La Roche Inc., priority 2022, published 2025)

Experiments:
SW620 cells = test: Cell viability assay (Cell Counting Kit-8), KRAS G12V; type: cell-based; settings: Homo sapiens, SW-620, 72 hrs incubation, CCK-8
Experimental: (§1) The purpose of this cellular assay was to determine the effects of test compounds on the proliferation of human cancer cell lines NCI-H358 (ATCC-CRL5807) cells, AGS (ATCC-CRL-1739) cells, SW620 (ATCC-CCL-227) over a 3-day treatment period by quantifying the amount of NADPH present at endpoint using Cell Counting Kit-8.
(§2) Cells were seeded at 5,000 cells/well (NCI-H358), 2,000 cells/well (AGS) 2,000 cells/well (SW620) in 96-well assay plates (Corning-3699) and incubated overnight. On the day of the assay, diluted compounds were then added in a final concentration of 0.5% DMSO. After 72 hrs incubation, a tenth of the volume of cell counting kit 8 (Dnjindo-CK04) was added into each well. Read the signal (OD450 minus OD650) using EnVision after 2 hrs incubation. IC50 was determined by fitting a 4-parameter sigmoidal concentration response model.

AGS cells = test: Cell viability assay (Cell Counting Kit-8), KRAS G12D; type: cell-based; settings: Homo sapiens, 72 hrs incubation, CCK-8
Experimental: as §1, §2

[1] = test system: phosphorylation of ERK, KRAS G12D in AGS cells; test: pERK inhibition assay, KRAS G12D; type: cell-based; settings: Homo sapiens, 4 hours of incubation
Experimental: (§3) This assay is to measure the ability of test compounds in inhibiting the phosphorylation of ERK, the downstream signaling of KRAS G12C in NCI-H358 cells, KRAS G12D in AGS cells, and KRAS G12V in SW620. NCI-H358 (ATCC-CRL5807) cells, AGS (ATCC-CRL-1739) cells, SW620 (ATCC-CCL-227) cells were all grown and maintained using RPMI-1640 medium (Thermo Fisher Scientific) with 10% fetal bovine serum and 1% penicillin/streptomycin. On the day prior to compound addition, cells were plated in tissue culture-treated 96 well plates (Corning-3699) at a density of 30,000 cell/well, 20,000 cell/well, 30,000 cell/well for NCI-H358, AGS and SW620 respectively, and allowed for attachment overnight. Diluted compounds were then added in a final concentration of 0.5% DMSO. After 4 hours of incubation, the medium was removed, 100 μL of 4% formaldehyde was added, and the assay plates were incubated at room temperature for 20 minutes. The plates were then washed once with phosphate buffered saline (PBS), and permeabilized with 100 μL of chilled methanol for 10 minutes. Non-specific antibody binding to the plates was blocked using 50 μL 1×BSA blocking buffer (Thermo-37520, 10-fold dilution by Phosphate-Buffered Saline Tween (PBST) for at least 1 hour at room temperature.
(§4) The amount of phosphor-ERK was determined using an antibody specific for phosphorylated form of ERK. Primary antibody (pERK, CST-4370, Cell Signaling Technology) was diluted 1:300 in blocking buffer, with 50 μL aliquoted to each well, and incubated overnight at 4° C. Cells was washed five times for 5 minutes with PBST. Secondary antibody (HRP-linked anti-rabbit IgG, CST-7074, Cell Signaling Technology) was diluted 1:1000 in blocking buffer, and 50 μL was added to each well and incubated 1-2 hrs at room temperature. Cells was washed 5 times for 5 minutes with PBST, 100 μL TMB ELISA substrate (abcam-ab171523) were added and gently shake for 20 minutes. 50 μL stop solution (abcam-ab171529) were added, and then read the signal (OD450) by EnVision.
(§5) IC50 was determined by fitting a 4-parameter sigmoidal concentration response model.

KRAS G12C-BRAF complex = KRAS G12C-BRAF complex (Homo sapiens (Human), UniProt P01116+P62937, G12C); test: KRAS-BRAF with CYPA (500 nM) interaction assay (TR-FRET), G12C; type: binding; settings: GMPPNP loaded 6His-KRAS, GST-BRAF RBD, 3 hours
Experimental: (§6) KRAS-BRAF with CYPA (500 nM) Interaction Assay
(§7) In this example, TR-FRET was also used to measure the compound or compound-CYPA dependent disruption of the KRAS G12C-BRAF complex. This protocol was also used to measure disruption of KRAS G12D or KRAS G12V binding to BRAF by a compound of the invention, respectively. In assay buffer containing 25 mM HEPES PH=7.4 (4-(2-hydroxyethyl)-1-piperazineethanesulfonic acid, Thermo, 15630080), 0.002% Tween20, 0.1% BSA, 100 mM NaCl, 5 mM MgCl2, 10 μM GMPPNP (Guanosine 5′-[β,γ-imido]triphosphate trisodium salt hydrate, Sigma, G0635), tagless CYPA, GMPPNP loaded 6His-KRAS proteins, and GST-BRAF^RBD were mixed in a well of a 384-well assay plate at final concentrations of 50 nM, 6.25 nM and 1 nM, respectively. Compound was present in plate wells as a 16-point 3-fold dilution series starting at a final concentration of 10 μM and incubated for 3 hours. A mixture of MAb Anti-6His-XL665 (Cisbio, 61HISXLB) and Mab anti-GST-TB cryptate (Cisbio, 61GSTTLB) was then added at a final concentration of 6.67 nM and 0.21 nM, respectively, and the plate was incubated for an additional 1.5 hours. TR-FRET signal was read on a PHERstar FSX microplate reader (Ex320 nm, Em 665/615 nm). Compounds that facilitate disruption of the KRAS-BRAF complex were identified as those eliciting a decrease in the TR-FRET ratio relative to DMSO control wells.

[2] = biological target: KRAS G12D binding to BRAF (Homo sapiens (Human), UniProt P01116+P62937, G12D); test: KRAS-BRAF with CYPA (500 nM) interaction assay (TR-FRET), G12D; settings: GMPPNP loaded 6His-KRAS, GST-BRAF RBD, 3 hours
Experimental: as §6, §7

NCI-H358 cells = test: Cell viability assay (Cell Counting Kit-8), KRAS G12C; type: cell-based; settings: Homo sapiens, 72 hrs incubation, CCK-8
Experimental: as §1, §2

[3] = test system: phosphorylation of ERK, KRAS G12V in SW620; test: pERK inhibition assay, KRAS G12V; type: cell-based; settings: Homo sapiens, SW-620; SW620 cells, 4 hours of incubation
Experimental: as §3, §4, §5

[4] = biological target: KRAS G12V binding to BRAF (Homo sapiens (Human), UniProt P01116+P62937, G12V); test: KRAS-BRAF with CYPA (500 nM) interaction assay (TR-FRET), G12V; settings: GMPPNP loaded 6His-KRAS, GST-BRAF RBD, 3 hours
Experimental: as §6, §7

[5] = test system: phosphorylation of ERK, KRAS G12C in NCI-H358 cells; test: pERK inhibition assay, KRAS G12C; type: cell-based; settings: Homo sapiens, 4 hours of incubation
Experimental: as §3, §4, §5

Sequence of KRAS G12D binding to BRAF (P01116-2 other isoform, or with tags, fused parts or gaps G12D): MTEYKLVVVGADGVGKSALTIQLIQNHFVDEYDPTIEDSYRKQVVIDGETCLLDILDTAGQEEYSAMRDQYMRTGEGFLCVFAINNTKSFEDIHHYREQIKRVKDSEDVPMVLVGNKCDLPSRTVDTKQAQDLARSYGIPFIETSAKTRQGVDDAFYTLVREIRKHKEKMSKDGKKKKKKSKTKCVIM
Sequence of KRAS G12D binding to BRAF (P62937 whole entry): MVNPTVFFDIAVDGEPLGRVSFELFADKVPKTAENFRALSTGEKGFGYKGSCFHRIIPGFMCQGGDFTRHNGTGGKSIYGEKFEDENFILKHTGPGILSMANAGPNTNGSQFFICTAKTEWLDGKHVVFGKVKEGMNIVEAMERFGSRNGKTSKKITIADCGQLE
Sequence of KRAS G12V binding to BRAF (P01116-2 other isoform, or with tags, fused parts or gaps G12V): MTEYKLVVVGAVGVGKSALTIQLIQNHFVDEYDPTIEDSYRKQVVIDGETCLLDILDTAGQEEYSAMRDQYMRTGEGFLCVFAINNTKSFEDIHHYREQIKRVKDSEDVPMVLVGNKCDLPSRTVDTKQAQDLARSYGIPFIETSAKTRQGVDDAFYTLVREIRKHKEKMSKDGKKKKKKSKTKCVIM
Sequence of KRAS G12V binding to BRAF (P62937 whole entry): as the sequence (P62937 whole entry) above
Sequence of KRAS G12C-BRAF complex (P01116-2 other isoform, or with tags, fused parts or gaps G12C): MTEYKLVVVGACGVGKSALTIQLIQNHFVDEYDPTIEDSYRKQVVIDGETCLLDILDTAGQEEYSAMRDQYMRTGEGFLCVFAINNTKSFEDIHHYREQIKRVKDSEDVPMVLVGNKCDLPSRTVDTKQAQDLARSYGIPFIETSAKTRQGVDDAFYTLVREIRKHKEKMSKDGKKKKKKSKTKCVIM
Sequence of KRAS G12C-BRAF complex (P62937 whole entry): as the sequence (P62937 whole entry) above

| SMILES | IC50 (SW620 cells) [µM] | IC50 (AGS cells) [µM] | IC50 [1] [µM] | IC50 (KRAS G12C-BRAF complex) [µM] | IC50 [2] [µM] | IC50 (NCI-H358 cells) [µM] | IC50 [3] [µM] | IC50 [4] [µM] | IC50 [5] [µM] |
| --- | --- | --- | --- | --- | --- | --- | --- | --- | --- |
| CCn1c(-c2cc(N3CCN(CC(F)(F)F)CC3)cnc2[C@H](C)OC)c2c3cc(c(F)cc31)-c1csc(n1)C[C@H](NC(=O)[C@H]1C[C@@H]1C)C(=O)N1CCC[C@H](N1)C(=O)OCC(C)(C)C2 (atropisomer, axis not shown; (M)) [Example 7, (1S,2S)—N-[(7S,13S)-21-ethyl-24-fluoro-(20M)-20-[2-[(1S)-1-methoxyethyl]-5-[4-(2,2,2-trifluoroethyl)piperazin-1-yl]-3-pyridyl]-17,17-dimethyl-8,14-dioxo-15-oxa-4-thia-9,21,27,28-tetrazapentacyclo[17.5.2.1^2,5.1^9,13.0^22,26]octacosa-1(25),2,5(28),19,22(26),23-hexaen-7-yl]-2-methyl-cyclopropanecarboxamide] | 0.027 | 0.389 | 0.115 | 0.192 | > 10 | 0.074 | 0.02 | 0.697 | 0.071 |
| CO[C@@H](C)c1ncc(N2CCN(C)CC2)cc1C1=C2CC(C)(C)COC(=O)[C@@H]3CCCN(N3)C(=O)[C@@H](NC(=O)[C@H]3C[C@@H]3C)Cc3nc(cs3)-c3ccc(c2c3)C1 (single isomer, unassigned) [Example A122, reference compound] | < 0.001 | 0.001 | 0.001 | 0.013 | 0.124 | < 0.001 | < 0.001 | 0.025 | 0.002 |
| CCn1c(-c2cc(N3CCN(C)CC3)cnc2[C@H](C)OC)c2c3cc(c(F)cc31)-c1csc(n1)C[C@H](NC(=O)[C@H]1C[C@@H]1C(F)F)C(=O)N1CCC[C@H](N1)C(=O)OCC(C)(C)C2 (atropisomer, axis not shown; (M)) [Example 3, (1S,2S)-2-(difluoromethyl)-N-[(7S,13S)-21-ethyl-24-fluoro-(20M)-20-[2-[(1S)-1-methoxyethyl]-5-(4-methylpiperazin-1-yl)-3-pyridyl]-17,17-dimethyl-8,14-dioxo-15-oxa-4-thia-9,21,27,28-tetrazapentacyclo[17.5.2.1^2,5.1^9,13.0^22,26]octacosa-1(25),2,5(28),19,22(26),23-hexaen-7-yl]cyclopropanecarboxamide] | 0.008 | 0.197 | 0.029 | 0.196 | 1.72 | 0.0116 | 0.005 | 0.243 | 0.011 |
| CO[C@@H](C)c1ncc(N2CCN(C)CC2)cc1-c1c2c3c(F)c(ccc3n1CC(F)(F)F)-c1csc(n1)C[C@H](NC(=O)[C@H]1C[C@@H]1C)C(=O)N1CCC[C@H](N1)C(=O)OCC(C)(C)C2 (atropisomer, axis not shown; (M)) [Example 10, (1S,2S)—N-[(7S,13S)-25-fluoro-(20M)-20-[2-[(1S)-1-methoxyethyl]-5-(4-methylpiperazin-1-yl)-3-pyridyl]-17,17-dimethyl-8,14-dioxo-21-(2,2,2-trifluoroethyl)-15-oxa-4-thia-9,21,27,28-tetrazapentacyclo[17.5.2.1^2,5.1^9,13.0^22,26]octacosa-1(25),2,5(28),19,22(26),23-hexaen-7-yl]-2-methyl-cyclopropanecarboxamide] | 0.003 | 0.013 | 0.011 | 0.009 | 0.02 | 0.012 | 0.002 | 0.013 | 0.017 |
| CO[C@@H](C)c1ncc(N2CCN(CC(F)(F)F)CC2)cc1-c1c2c3cc(c(F)cc3n1CC(F)(F)F)-c1csc(n1)C[C@H](NC(=O)[C@H]1C[C@@H]1C)C(=O)N1CCC[C@H](N1)C(=O)OCC(C)(C)C2 (atropisomer, axis not shown; (M)) [Example 9, (1S,2S)—N-[(7S,13S)-24-fluoro-(20M)-20-[2-[(1S)-1-methoxyethyl]-5-[4-(2,2,2-trifluoroethyl)piperazin-1-yl]-3-pyridyl]-17,17-dimethyl-8,14-dioxo-21-(2,2,2-trifluoroethyl)-15-oxa-4-thia-9,21,27,28-tetrazapentacyclo[17.5.2.1^2,5.1^9,13.0^22,26]octacosa-1(25),2,5(28),19,22(26),23-hexaen-7-yl]-2-methyl-cyclopropanecarboxamide] | 0.04 | 0.704 | 0.161 | 0.09 | 0.66 | 0.224 | 0.022 | 0.171 | 0.047 |
| CCn1c(-c2cc(N3CCN(C)CC3)cnc2[C@H](C)OC)c2c3cc(c(F)cc31)-c1csc(n1)C[C@H](NC(=O)[C@H]1[C@@H]3COC[C@@H]31)C(=O)N1CCC[C@H](N1)C(=O)OCC(C)(C)C2 (atropisomer, axis not shown; (M)) [Example 2, (1R,5S)—N-[(7S,13S)-21-ethyl-24-fluoro-(20M)-20-[2-[(1S)-1-methoxyethyl]-5-(4-methylpiperazin-1-yl)-3-pyridyl]-17,17-dimethyl-8,14-dioxo-15-oxa-4-thia-9,21,27,28-tetrazapentacyclo[17.5.2.1^2,5.1^9,13.0^22,26]octacosa-1(25),2,5(28),19,22(26),23-hexaen-7-yl]-3-oxabicyclo[3.1.0]hexane-6-carboxamide] | 0.005 | 0.059 | 0.018 | 0.134 | 0.957 | 0.011 | 0.003 | 0.174 | 0.009 |
